Assay results reported in PubChem BioAssay AID2060504 (Molecular Pharmacology Branch, DTP, NCI, 2025).
pIC50: −log10 of the molar value.

Test system: 636577-100-R-J1-PDC complex spheroid viability
Assay: Anticancer human tumor 636577-100-R-J1-PDC patient-derived endometrial adenocarcinoma cell line growth inhibition [GQUAD]
Conditions: for pIC50: curve of first compound; for viability, T/C: stronger effect = lower value
Procedure, shortened: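 Tumor cells were grown as complex spheroids with HUVEC endothelial cells and mesenchymal stem cells as stroma. G-quadruplex stabilizers were combined with targeted agents over half-log dilutions from near the clinical Cmax, or from 10 microM.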

[1] = second compound 0.0316 µM, first compound 0.0316 µM
[2] = second compound 0.0316 µM, first compound 0.1 µM
[3] = second compound 0.0316 µM, first compound 0.316 µM
[4] = second compound 0.0316 µM, first compound 1 µM
[5] = second compound 0.0316 µM, first compound 3.16 µM
[6] = second compound 0.0316 µM, first compound 10 µM
[7] = second compound 0.1 µM, first compound 0.0316 µM
[8] = second compound 0.1 µM, first compound 0.1 µM
[9] = second compound 0.1 µM, first compound 0.316 µM
[10] = second compound 0.1 µM, first compound 1 µM
[11] = second compound 0.1 µM, first compound 3.16 µM
[12] = second compound 0.1 µM, first compound 10 µM
[13] = second compound 0.316 µM, first compound 0.0316 µM
[14] = second compound 0.316 µM, first compound 0.1 µM
[15] = second compound 0.316 µM, first compound 0.316 µM
[16] = second compound 0.316 µM, first compound 1 µM
[17] = second compound 0.316 µM, first compound 3.16 µM
[18] = second compound 0.316 µM, first compound 10 µM
[19] = second compound 1 µM, first compound 0.0316 µM
[20] = second compound 1 µM, first compound 0.1 µM
[21] = second compound 1 µM, first compound 0.316 µM
[22] = second compound 1 µM, first compound 1 µM
[23] = second compound 1 µM, first compound 3.16 µM
[24] = second compound 1 µM, first compound 10 µM
[25] = second compound 3.16 µM, first compound 0.0316 µM
[26] = second compound 3.16 µM, first compound 0.1 µM
[27] = second compound 3.16 µM, first compound 0.316 µM
[28] = second compound 3.16 µM, first compound 1 µM
[29] = second compound 3.16 µM, first compound 3.16 µM
[30] = second compound 3.16 µM, first compound 10 µM
[31] = second compound 10 µM, first compound 0.0316 µM
[32] = second compound 10 µM, first compound 0.1 µM
[33] = second compound 10 µM, first compound 0.316 µM
[34] = second compound 10 µM, first compound 1 µM
[35] = second compound 10 µM, first compound 3.16 µM
[36] = second compound 10 µM, first compound 10 µM
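Also: viability read after seven days of drug exposure.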
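For viability, T/C in this document: luminescence signal used as a proxy for viable cells; 100% = DMSO vehicle control wells.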

SMILES: C=CCn1c(=O)c2cnc(Nc3ccc(N4CCN(C)CC4)cc3)nc2n1-c1cccc(C(C)(C)O)n1 + Cc1cnc(CNC(=O)c2c(=O)c3ccc(N4CCCN(C)CC4)nc3n3c2sc2ccccc23)cn1
- pIC50 (second compound 0.0316 µM): > 7.50
- pIC50 (second compound 0.1 µM): > 7.50
- pIC50 (second compound 0.316 µM): > 7.50
- pIC50 (second compound 1 µM): > 7.50
- pIC50 (second compound 3.16 µM): > 7.50
- pIC50 (second compound 10 µM): > 7.50
- viability, T/C [1]: 49.8%
- viability, T/C [2]: 40.3%
- viability, T/C [3]: 47.3%
- viability, T/C [4]: 28.2%
- viability, T/C [5]: 22.4%
- viability, T/C [6]: 12.1%
- viability, T/C [7]: 29.4%
- viability, T/C [8]: 29%
- viability, T/C [9]: 28.7%
- viability, T/C [10]: 22.3%
- viability, T/C [11]: 21.3%
- viability, T/C [12]: 14.2%
- viability, T/C [13]: 27.4%
- viability, T/C [14]: 26.2%
- viability, T/C [15]: 28.2%
- viability, T/C [16]: 24.2%
- viability, T/C [17]: 24.8%
- viability, T/C [18]: 15.1%
- viability, T/C [19]: 19.4%
- viability, T/C [20]: 19.5%
- viability, T/C [21]: 22.5%
- viability, T/C [22]: 24.5%
- viability, T/C [23]: 23.4%
- viability, T/C [24]: 14.3%
- viability, T/C [25]: 18.1%
- viability, T/C [26]: 22.3%
- viability, T/C [27]: 25.9%
- viability, T/C [28]: 23.7%
- viability, T/C [29]: 21.1%
- viability, T/C [30]: 18.4%
- viability, T/C [31]: 23%
- viability, T/C [32]: 22.2%
- viability, T/C [33]: 24.2%
- viability, T/C [34]: 19.1%
- viability, T/C [35]: 25.2%
- viability, T/C [36]: 23.1%

SMILES: CC(C)(O)C1CCC(Nc2ccc3ncc(-c4cccc(C(F)(F)F)c4)n3n2)CC1 (centres undefined) + Cc1cnc(CNC(=O)c2c(=O)c3ccc(N4CCCN(C)CC4)nc3n3c2sc2ccccc23)cn1
- pIC50 (second compound 0.0316 µM): 6.45
- pIC50 (second compound 0.1 µM): > 7.50
- pIC50 (second compound 0.316 µM): > 7.50
- pIC50 (second compound 1 µM): > 7.50
- pIC50 (second compound 3.16 µM): > 7.50
- pIC50 (second compound 10 µM): > 7.50
- viability, T/C [1]: 52.8%
- viability, T/C [2]: 51.1%
- viability, T/C [3]: 51.6%
- viability, T/C [4]: 37.6%
- viability, T/C [5]: 22%
- viability, T/C [6]: 21.3%
- viability, T/C [7]: 28.9%
- viability, T/C [8]: 32.1%
- viability, T/C [9]: 32.7%
- viability, T/C [10]: 29.3%
- viability, T/C [11]: 16.6%
- viability, T/C [12]: 18.6%
- viability, T/C [13]: 25.3%
- viability, T/C [14]: 28.4%
- viability, T/C [15]: 27.2%
- viability, T/C [16]: 24.4%
- viability, T/C [17]: 18.2%
- viability, T/C [18]: 16%
- viability, T/C [19]: 17.9%
- viability, T/C [20]: 27.1%
- viability, T/C [21]: 25.6%
- viability, T/C [22]: 22.4%
- viability, T/C [23]: 18.7%
- viability, T/C [24]: 13.9%
- viability, T/C [25]: 19.7%
- viability, T/C [26]: 22.3%
- viability, T/C [27]: 25.1%
- viability, T/C [28]: 23.3%
- viability, T/C [29]: 12.7%
- viability, T/C [30]: 7.93%
- viability, T/C [31]: 19.2%
- viability, T/C [32]: 24.1%
- viability, T/C [33]: 24.4%
- viability, T/C [34]: 21.3%
- viability, T/C [35]: 0.12%
- viability, T/C [36]: 0.11%
